Data: patent publication US10550143B2, “C,O-spiro aryl glycoside compounds, preparation therefor and use thereof” (SHANGHAI INSTITUTE OF MATERIA MEDICA, CHINESE ACADEMY OF …, priority 2015, dated 2020)

Columns and labels:
[1] = biological target: T1, human sodium-glucose cotransporter 2 (SGLT2) (Homo sapiens, UniProt P31639); experiment: In vitro SGLT2 inhibition, methyl-α-D-[U-14C]glucopyranoside uptake in NIH3T3-hSGLT2 cells; assay type: cell-based
T1 construct: expressed in transfected cells; host or cells: NIH3T3 (mouse fibroblast) cells expressing hSGLT2
T1 sequence (P31639 1-672): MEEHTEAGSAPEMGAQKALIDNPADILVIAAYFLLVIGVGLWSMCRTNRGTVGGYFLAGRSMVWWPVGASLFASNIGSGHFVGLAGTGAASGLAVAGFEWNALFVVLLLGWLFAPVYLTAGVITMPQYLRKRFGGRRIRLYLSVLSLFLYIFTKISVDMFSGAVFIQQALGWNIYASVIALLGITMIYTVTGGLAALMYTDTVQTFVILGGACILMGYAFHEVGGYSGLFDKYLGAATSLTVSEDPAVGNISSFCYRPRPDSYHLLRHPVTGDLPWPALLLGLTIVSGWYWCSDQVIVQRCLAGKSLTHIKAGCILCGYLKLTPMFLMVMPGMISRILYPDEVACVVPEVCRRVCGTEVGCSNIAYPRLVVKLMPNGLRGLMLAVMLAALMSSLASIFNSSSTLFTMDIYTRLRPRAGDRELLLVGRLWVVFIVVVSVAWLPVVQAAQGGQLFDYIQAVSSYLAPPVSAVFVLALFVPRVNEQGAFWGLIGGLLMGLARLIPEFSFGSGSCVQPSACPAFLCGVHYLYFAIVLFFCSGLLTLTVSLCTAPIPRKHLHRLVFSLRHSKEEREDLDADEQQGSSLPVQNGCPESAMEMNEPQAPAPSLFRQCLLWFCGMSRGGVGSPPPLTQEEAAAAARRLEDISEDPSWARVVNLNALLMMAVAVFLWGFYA
In short: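 The readout was scintillation-counted uptake of 14C-labelled methyl-α-D-glucopyranoside (⅙ mM unlabelled in uptake buffer) in compound-containing KRH-Na+; KRH-acetylcholine defined background. Cells were butyrate-induced (2 mM) NIH3T3-hSGLT2 at 40000/well.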

db/db mice = experiment: Chronic administration, random blood glucose in db/db mice; assay type: in vivo, mouse; details: for random blood glucose Pre: before administration; for Hypoglycemic rate % week 1 / Hypoglycemic rate % week 2 / Hypoglycemic rate % week 3 / Hypoglycemic rate % week 4: random blood glucose
Procedure: Oral gavage administrated, daily dose volume was 10 mL/kg, administered once daily. Administration time was 9: 00-10:00 daily, and the administration period was 5 weeks.
The random blood glucose of mice in the normal control group, model control group, test substance administration group and positive control group were determined on the 7th, 14th, 21st, 28th day (9: 00-10:00) every week after the first administration, and food was removed and after 6 hours of starvation, the fasting blood glucose in each group was measured. Free drinking during the hunger process. The rate of decrease of blood glucose was calculated according to the following formula: Average hypoglycemic rate %=(Blood glucose of model control group−Blood glucose of administration group)/Model control group×100%

SD rats = experiment: Acute single administration, urinary glucose changes in SD rats; assay type: in vivo, rat; set-up: Urine glucose concentration / The total amount of glucose excreted: unit not given here; details: 1 mg/kg oral, after 24 h
Procedure: (1) Acutely Administering Compound to Observed the Urinary Glucose Changes in SD Rats
Thirty-eight male normal SD rats were selected and randomly divided into 5 groups according to body weight and blood glucose, 6-8 in each group. […] After oral gavage, the rats were placed in rats metabolic cages, and urine was collected after 24 h, and the urine volume was recorded, the urine sugar concentration was determined, and urinary sugar content was calculated according to the following formula. Urine content=urinary sugar concentration×urine volume
Glucose levels in urine are measured by the glucose assay kit.
Data were expressed as mean±standard deviation (x±s), and Student's t test was used for statistical analysis of the data, p<0.05 was considered statistically significant.

Q: What does the source list for `CCc1ccc(Cc2cc3c(cc2Cl)CO[C@]32O[C@H](C)[C@@H](O)[C@H](O)[C@H]2O)s1` [Example A28, (1S,3′R,4′S,5′S,6′R)-6′-methyl-6-((5-ethylthienyl)-2-methyl)-5-chloro-3′,4′,5′,6′-tetrahydro-3H-spiro[isobenzofuran-1,2′-pyran]-3′,4′,5′-triol]?
A: Selectivity ([1]; IC50 SGLT1/IC50 SGLT2): 1450; inhibition at 0.01 µM ([1]; SGLT2, 10 nM, read-out: % Inhibition rate ± SD 10 nM): 67 ± 4.9%; inhibition at 0.1 µM ([1]; SGLT2, 100 nM, read-out: % Inhibition rate ± SD 100 nM): 86.1 ± 2.4%; IC50 ([1]; read-out: IC50 ± SD SGLT2): 1.42 ± 0.2 nM; random blood glucose week 1 (db/db mice; 0.3 mg/kg once daily oral): 16.9 ± 1.3 mmol/L; random blood glucose week 2 (db/db mice; 0.3 mg/kg once daily oral): 15.7 ± 1.3 mmol/L; random blood glucose week 3 (db/db mice; 0.3 mg/kg once daily oral): 16.7 ± 1.5 mmol/L; random blood glucose week 4 (db/db mice; 0.3 mg/kg once daily oral): 19.1 ± 1.6 mmol/L; random blood glucose Pre (db/db mice; 0.3 mg/kg once daily oral): 17.9 ± 1.4 mmol/L; random blood glucose week 1 (db/db mice; 1 mg/kg once daily oral): 16.1 ± 1.0 mmol/L; random blood glucose week 2 (db/db mice; 1 mg/kg once daily oral): 16.3 ± 1.2 mmol/L; random blood glucose week 3 (db/db mice; 1 mg/kg once daily oral): 15.9 ± 1.1 mmol/L; random blood glucose week 4 (db/db mice; 1 mg/kg once daily oral): 15.1 ± 1.4 mmol/L; random blood glucose Pre (db/db mice; 1 mg/kg once daily oral): 16.8 ± 1.2 mmol/L; random blood glucose week 1 (db/db mice; 3 mg/kg once daily oral): 14.7 ± 0.9 mmol/L; random blood glucose week 2 (db/db mice; 3 mg/kg once daily oral): 13.0 ± 0.8 mmol/L; random blood glucose week 3 (db/db mice; 3 mg/kg once daily oral): 12.4 ± 1.0 mmol/L; random blood glucose week 4 (db/db mice; 3 mg/kg once daily oral): 13.2 ± 0.9 mmol/L; random blood glucose Pre (db/db mice; 3 mg/kg once daily oral): 18.7 ± 1.2 mmol/L; random blood glucose week 1 (db/db mice; 10 mg/kg once daily oral): 12.9 ± 0.6 mmol/L; random blood glucose week 2 (db/db mice; 10 mg/kg once daily oral): 10.6 ± 0.5 mmol/L; random blood glucose week 3 (db/db mice; 10 mg/kg once daily oral): 9.1 ± 0.4 mmol/L; random blood glucose week 4 (db/db mice; 10 mg/kg once daily oral): 9.7 ± 0.7 mmol/L; random blood glucose Pre (db/db mice; 10 mg/kg once daily oral): 18.3 ± 1.6 mmol/L; Hypoglycemic rate % week 1 (db/db mice; 0.3 mg/kg once daily oral): 14.0%; Hypoglycemic rate % week 2 (db/db mice; 0.3 mg/kg once daily oral): 19.1%; Hypoglycemic rate % week 3 (db/db mice; 0.3 mg/kg once daily oral): 18.0%; Hypoglycemic rate % week 4 (db/db mice; 0.3 mg/kg once daily oral): 7.8%; Hypoglycemic rate % week 1 (db/db mice; 1 mg/kg once daily oral): 17.9%; Hypoglycemic rate % week 2 (db/db mice; 1 mg/kg once daily oral): 16.0%; Hypoglycemic rate % week 3 (db/db mice; 1 mg/kg once daily oral): 21.8%; Hypoglycemic rate % week 4 (db/db mice; 1 mg/kg once daily oral): 27.0%; Hypoglycemic rate % week 1 (db/db mice; 3 mg/kg once daily oral): 25.4%; Hypoglycemic rate % week 2 (db/db mice; 3 mg/kg once daily oral): 33.1%; Hypoglycemic rate % week 3 (db/db mice; 3 mg/kg once daily oral): 39.0%; Hypoglycemic rate % week 4 (db/db mice; 3 mg/kg once daily oral): 36.6%; Hypoglycemic rate % week 1 (db/db mice; 10 mg/kg once daily oral): 34.3%; Hypoglycemic rate % week 2 (db/db mice; 10 mg/kg once daily oral): 45.3%; Hypoglycemic rate % week 3 (db/db mice; 10 mg/kg once daily oral): 55.3%; Hypoglycemic rate % week 4 (db/db mice; 10 mg/kg once daily oral): 53.1%; The total amount of glucose excreted (SD rats; Table 3): 337.10 ± 313.7; Urine glucose concentration (SD rats; Table 3): 76.29 ± 71.20; Urine volume (SD rats; Table 3, in mL): 24 ± 6.63
